Experimental findings from patent US8124641B2, “Aminotetrahydroindazoloacetic acids” (Hoffmann-La Roche Inc., priority 2008, dated 2012) are described below.

In the experiment the target is T1, human CRTH2 (Homo sapiens, UniProt Q9Y5Y4).
T1 construct: expressed in transfected cells
T1 sequence (Q9Y5Y4 1-395): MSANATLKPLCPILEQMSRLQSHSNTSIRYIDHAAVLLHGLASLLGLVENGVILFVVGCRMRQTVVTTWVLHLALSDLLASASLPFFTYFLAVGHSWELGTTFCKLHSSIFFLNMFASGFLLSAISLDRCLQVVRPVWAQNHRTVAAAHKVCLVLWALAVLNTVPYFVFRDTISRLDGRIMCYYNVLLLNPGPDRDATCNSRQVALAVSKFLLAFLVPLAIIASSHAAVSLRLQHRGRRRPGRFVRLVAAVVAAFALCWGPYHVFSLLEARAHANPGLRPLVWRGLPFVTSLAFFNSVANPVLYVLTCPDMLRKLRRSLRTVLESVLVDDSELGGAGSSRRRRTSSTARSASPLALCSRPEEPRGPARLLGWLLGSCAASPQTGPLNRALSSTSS
The experiment can be described thus: Human CRTH2 Receptor Binding Assay (whole cell, [3H]ramatroban competition). To be noted: CHO-K1 cells stably expressing human CRTH2 and G-alpha16; 20 nM [3H]ramatroban; 1 hour, room temperature. From the text:
A whole cell receptor binding assay using [^3H]ramatroban as the competing radioactive ligand was employed to evaluate the compound binding activity to human CRTH2. The radioactive ligand [^3H]ramatroban was synthesized according to Sugimoto et. al. (Eur. J. Pharmacol. 524, 30-37, 2005) to a specific activity of 42 Ci/mmol.
A cell line stably expressing human CRTH2 was established by transfecting CHO-K1 cells with two mammalian expression vectors that harbored human CRTH2 and G-alpha16 cDNAs, respectively, using FuGene® 6 transfection reagent (from Roche). Stable clones expressing CRTH2 were selected by staining each clone with BM16 (BD Pharmingen™ from BD Biosciences, a division of Becton, Dickinson and Company), which is a rat monoclonal antibody to human CRTH2. The cells were maintained as monolayer cultures in Ham's F-12 medium containing 10% fetal bovine serum, 100 units/mL penicillin, 100 μg/mL streptomycin, 2 mM glutamine, 0.5 mg/mL G418 (geneticin) for CRTH2, and 0.2 mg/mL hygromycin-B (for G-alpha 16). For whole cell receptor binding assay, the monolayer cells were rinsed once with PBS (phosphate buffered saline), dissociated using ethylenediaminetetraacetate (Versene™ EDTA from Lonza Inc.), and suspended in PBS containing 10 mM MgCl2 and 0.06% BSA (bovine serum albumin) at 1.5×10^6 cells/mL.
The binding reactions (0.2 mL) were performed in 96-well plates at room temperature in PBS containing 1.5×10^5 cells, 10 mM MgCl2, 0.06% BSA, 20 nM [^3H]ramatroban, and test compound at various concentrations. After 1 hour of binding reactions, the cells were harvested on GF™/B filter microplates (microtiter plates with embedded glass fiber from PerkinElmer, Inc.) and washed 5 times with PBS using a Filtermate™ Harvester (a cell harvester that harvests and washes cells from microplates from PerkinElmer, Inc.). The radioactivities bound to the cells were determined using a microplate scintillation counter (TopCount® NXT, from PerkinElmer, Inc.) after adding 50 μL of Microscint™ 20 scintillation fluid (from PerkinElmer, Inc.) to each well of the filter plates. The radioactivity from non-specific binding was determined by replacing compound with 10 μM of 15(R)-15-methyl PGD2 (from Cayman Chemical Company) in the reaction mixtures. The radioactivity bound to the cells in the absence of compound (total binding) was determined by replacing compound with 0.25% of DMSO (dimethyl sulfoxide) in the reaction mixture. Specific binding data were obtained by subtracting the radioactivity of non-specific binding from each binding data.
The IC50 value is defined as the concentration of the tested compound that is required for 50% inhibition of total specific binding. In order to calculate the IC50 value, the percent inhibition data were determined for 7 concentrations for each compound. The percent inhibition for a compound at each concentration was calculated according to the following formula, [1−(specific binding in the presence of compound)/(total specific binding)]×100. The IC50 value was then obtained by fitting the percent inhibition data to a sigmoidal dose-response (4 parameter logistic) model in the XLfit® software Excel add-in program [from ID Business Solutions Ltd., model 205, where F(x)=(A+(B−A)/(1+((C/x)^D)))].
Consider `CC(C)N(C)c1cc(C(F)(F)F)cc(S(=O)(=O)N(C)[C@@H]2CCCc3c2cnn3CC(=O)O)c1` [Example 24-2a, ((R)-4-{[3-(Isopropyl-methyl-amino)-5-trifluoromethyl-benzenesulfonyl]-methyl-amino}-4,5,6,7-tetrahydro-indazol-1-yl)-acetic acid], for which the IC50 (commonly the midpoint of a concentration-inhibition curve) was 45.7 nM.

In turn, `CN([C@@H]1CCCc2c1cnn2CC(=O)O)S(=O)(=O)c1ccc(OC2CCCC2)c(Cl)c1` [Example 4-1a, {(R)-4-[(3-Chloro-4-cyclopentyloxy-benzenesulfonyl)-methyl-amino]-1-4,5,6,7-tetrahydro-indazol-1-yl}-acetic acid] had an IC50 of 99.2 nM.

In turn, `CC(C)c1cc(C(F)(F)F)cc(S(=O)(=O)N(C)[C@@H]2CCCc3c2cnn3CC(=O)O)c1` [Example 13-1a, {(R)-4-[(3-isopropyl-5-trifluoromethyl-benzenesulfonyl)-methyl-amino]-4,5,6,7-tetrahydro-indazol-1-yl}-acetic acid] registered an IC50 of 7.3 nM.

The compound `CS(=O)(=O)Nc1cccc(S(=O)(=O)NC2CCCc3c2cnn3CC(=O)O)c1` (stereo not drawn) [Example 23-1a, [4-(3-Methanesulfonylamino-benzenesulfonylamino)-4,5,6,7-tetrahydro-indazol-1-yl]-acetic acid] displayed an IC50 of 39.5 nM.

For `CS(=O)(=O)c1cc(C(F)(F)F)cc(S(=O)(=O)N[C@@H]2CCCc3c2cnn3CC(=O)O)c1` [Example 5-1a, [(R)-4-(3-Methanesulfonyl-5-trifluoromethyl-benzenesulfonylamino)-4,5,6,7-tetra-hydro-indazol-1-yl]-acetic acid], the concentration for half-maximal inhibition (IC50) came out at 3.1 nM.

Compound `O=C(O)Cn1ncc2c1CCC[C@H]2NS(=O)(=O)c1cc(C(F)(F)F)cc(C(F)(F)F)c1` [Example 1-4a, [(R)-4-(3,5-Bis-trifluoromethyl-benzenesulfonylamino)-4,5,6,7-tetrahydro-indazol-1-yl]-acetic acid] came in with an IC50 of 16.4 nM.

As for `CCOc1ncc(S(=O)(=O)NC2CCCc3c2cnn3CC(=O)O)cc1Br` (stereo not drawn) [Example 3-2a, [4-(5-Bromo-6-ethoxy-pyridine-3-sulfonylamino)-4,5,6,7-tetrahydro-indazol-1-yl]-acetic acid], the IC50 came to 370 nM.

`CCOc1cc(C(F)(F)F)cc(S(=O)(=O)NC2CCCc3c2cnn3CC(=O)O)c1` (stereo not drawn) [Example 3-1a, [4-(3-Ethoxy-5-trifluoromethyl-benzenesulfonylamino)-4,5,6,7-tetrahydro-indazol-1-yl]-acetic acid] displayed an IC50 of 145 nM.

The compound `O=C(O)Cn1ncc2c1CCCC2NS(=O)(=O)c1cnc(OC2CCCC2)c(Br)c1` (stereo not drawn) [Example 3-3a, [4-(5-Bromo-6-cyclopentyloxy-pyridine-3-sulfonylamino)-4,5,6,7-tetrahydro-indazol-1-yl]-acetic acid] showed an IC50 of 10.3 nM.

On to `CS(=O)(=O)c1cc(S(C)(=O)=O)cc(S(=O)(=O)N[C@@H]2CCCc3c2cnn3CC(=O)O)c1` [Example 1-16a, [(R)-4-(3,5-Bis-methanesulfonyl-benzenesulfonylamino)-4,5,6,7-tetrahydro-indazol-1-yl]-acetic acid], for which the IC50 stood at 5.9 nM.

`O=C(O)CCn1ncc2c1CCC[C@H]2NS(=O)(=O)c1cc(C(F)(F)F)cc(C(F)(F)F)c1` [Example 1-18a, 3-[(R)-4-(3,5-Bis-trifluoromethyl-benzenesulfonylamino)-4,5,6,7-tetrahydro-indazol-1-yl]-propionic acid] gave an IC50 of 264 nM.

`O=C(O)Cn1ncc2c1CCCC2NS(=O)(=O)c1ccc(Br)c(F)c1` (stereo not drawn) [Example 1-8a, [4-(4-Bromo-3-fluoro-benzenesulfonylamino)-4,5,6,7-tetrahydro-indazol-1-yl]-acetic acid]: the concentration for half-maximal inhibition (IC50) was determined as 431 nM.

Take `Cc1ccc(S(=O)(=O)NC2CCCc3c2cnn3CC(=O)O)cc1Cl` (stereo not drawn) [Example 1-17a, [4-(3-Chloro-4-methyl-benzenesulfonylamino)-4,5,6,7-tetrahydro-indazol-1-yl]-acetic acid]: the IC50 came out at 381 nM.

Compound `CN([C@@H]1CCCc2c1cnn2CC(=O)O)S(=O)(=O)c1cnc(OC2CCC2)c(Br)c1` [Example 4-2a, {(R)-4-[(5-Bromo-6-cyclobutoxy-pyridine-3-sulfonyl)-methyl-amino]-4,5,6,7-tetrahydro-indazol-1-yl}-acetic acid] displayed an IC50 of 39.1 nM.

In the case of `CN([C@@H]1CCCc2c1cnn2CCC(=O)O)S(=O)(=O)c1cc(C(F)(F)F)cc(C(F)(F)F)c1` [Example 2-8a, 3-{(R)-4-[(3,5-Bis-trifluoromethyl-benzenesulfonyl)-methyl-amino]-4,5,6,7-tetrahydro-indazol-1-yl}-propionic acid], the IC50 was 43.4 nM.

Take `CC(C)S(=O)(=O)c1cc(C(F)(F)F)cc(S(=O)(=O)N(C)[C@@H]2CCCc3c2cnn3CC(=O)O)c1` [Example 10-3a, ((R)-4-{Methyl-[3-(propane-2-sulfonyl)-5-trifluoromethyl-benzenesulfonyl]-amino}-4,5,6,7-tetrahydro-indazol-1-yl)-acetic acid]: the IC50 came to 2.1 nM.

`CCC1(c2cc(C(F)(F)F)cc(S(=O)(=O)N(C)[C@@H]3CCCc4c3cnn4CC(=O)O)c2)CC1` [Example 15-1a, ((R)-4-{[3-(1-Ethyl-cyclopropyl)-5-trifluoromethyl-benzenesulfonyl]-methyl-amino}-4,5,6,7-tetrahydro-indazol-1-yl)-acetic acid] displayed an IC50 of 12.3 nM.

`CC(C)S(=O)(=O)c1cc(C(F)(F)F)cc(S(=O)(=O)N(C)[C@@H]2CCCc3c2cnn3CCC(=O)O)c1` [Example 10-5a, 3-((R)-4-{Methyl-[3-(propane-2-sulfonyl)-5-trifluoromethyl-benzenesulfonyl]-amino}-4,5,6,7-tetrahydro-indazol-1-yl)-propionic acid] showed an IC50 of 2.4 nM.

For the compound `Cc1cc(C(F)(F)F)cc(S(=O)(=O)NC2CCCc3c2cnn3CC(=O)O)c1` (stereo not drawn) [Example 25-2a, [4-(3-Methyl-5-trifluoromethyl-benzenesulfonylamino)-4,5,6,7-tetrahydro-indazol-1-yl]-acetic acid], the IC50 came out at 142 nM.

In turn, `CN([C@@H]1CCCc2c1cnn2CC(=O)O)S(=O)(=O)c1ccc(C(F)(F)F)cc1Cl` [Example 2-3a, {(R)-4-[(2-Chloro-4-trifluoromethyl-benzenesulfonyl)-methyl-amino]-4,5,6,7-tetrahydro-indazol-1-yl}-acetic acid] returned an IC50 of 78.6 nM.

For the compound `CN([C@@H]1CCCc2c1cnn2CC(=O)O)S(=O)(=O)c1cc(Br)cc(C(F)(F)F)c1` [Example 2-5a, {(R)-4-[(3-Bromo-5-trifluoromethyl-benzenesulfonyl)-methyl-amino]-4,5,6,7-tetrahydro-indazol-1-yl}-acetic acid], the IC50 was 11.2 nM.

Turning to `CC(=O)c1cc(C(F)(F)F)cc(S(=O)(=O)N(C)[C@@H]2CCCc3c2cnn3CC(=O)O)c1` [Example 19-1a, {(R)-4-[(3-Acetyl-5-trifluoromethyl-benzenesulfonyl)-methyl-amino]-4,5,6,7-tetrahydro-indazol-1-yl}-acetic acid], the concentration for half-maximal inhibition (IC50) stood at 7 nM.

`CN([C@@H]1CCCc2c1cnn2CC(=O)O)S(=O)(=O)c1ccc(Br)cc1Cl` [Example 2-2a, {(R)-4-[(4-Bromo-2-chloro-benzenesulfonyl)-methyl-amino]-4,5,6,7-tetrahydro-indazol-1-yl}-acetic acid] came in with an IC50 of 97.8 nM.

`COc1ccc(S(=O)(=O)NC2CCCc3c2cnn3CC(=O)O)cc1C(F)(F)F` (stereo not drawn) [Example 1-15a, [4-(4-Methoxy-3-trifluoromethyl-benzenesulfonylamino)-4,5,6,7-tetrahydro-indazol-1-yl]-acetic acid] displayed an IC50 of 262 nM.
